Assay results reported in patent US20080233209A1, “Composition and method of use for the treatment of metabolic syndrome and inflammation” (POLIFENOLES NATURALES, SL, priority 2007, published 2008).
“Also recorded” adds a separate entry of the source. Where two headings read alike, the source gives them in different places.

What was measured:
[1] = Energy expenditure rate (EER) by indirect calorimetry, 16-week double-blind placebo-controlled trial in obese non-diabetic female volunteers with NAFLD (Example 1); assay type: in vivo, human; design: key to Effects on EER: NE = No effect; * = significant vs. placebo and vs. baseline, p < 0.05% at the week listed for the duration of the study; *** = significant vs. placebo and vs. baseline, p < 0.001%; details: for Effects on EER: 16 weeks
From the text: The objectives of the study were to investigate the effects of different doses of a brown marine vegetable extract standardized by fucoxanthin content, pomegranate seed oil containing a minimum of 70% punicic acid, and the phytomedicine combining, both of fucoxanthin and pomegranate seed oil, on energy expenditure rate (EER) in obese non-diabetic female volunteers with non-alcoholic fatty liver disease (NAFLD) on a moderate calorie restriction diet. Forty-one (n=41) volunteers with an average body weight of 91.5±14.4 kgs (201+9.7 lbs), body fat of 40.4±3.7 kgs (88.8+8 lbs), liver fat content above 10% and average age of 37.4±4.8 years were recruited to take part in a 16-week clinical trial. Daily meal composition was 50% carbohydrate, 30% protein and 20% fat. Food record data, body composition, EER, and blood sample analysis results were assessed on admission and every week for 16-weeks. Energy expenditure rate (EER) was measured by indirect calorimetry. Plasma levels of inflammatory markers alanine aminotransferase (ALT), aspartate aminotransferase (AST), g-glutamyltransferase (GGT) enzymes and C-reactive protein (CRP) were evaluated as measures of liver function, along with diastolic and systolic blood pressure, dual-energy X-ray absorptiometry to determine percent of lean and fat body mass, and liver fat content. Subjects were randomly assigned to one of 10 treatments or placebo (total 11 groups), which were in softgel capsules and were to be consumed with water 15 to 30 mins. before meals. Each phytomedicine soft-gel capsule provided 100 mg of Undaria pinnatifida (Phaeophyceae) brown marine vegetable extract and 100 mg of cold-pressed pomegranate (Punica granatum, Punicaceae) seed oil.

[2] = system: mitochondrial uncoupling protein 1 (UCP1); details: fucoxanthin; cited from earlier work
[3] = Tolerability in the 16-week clinical trial of Example 1; assay type: in vivo, human
Procedure: Forty-one (n=41) volunteers with an average body weight of 91.5±14.4 kgs (201+9.7 lbs), body fat of 40.4±3.7 kgs (88.8+8 lbs), liver fat content above 10% and average age of 37.4±4.8 years were recruited to take part in a 16-week clinical trial. Daily meal composition was 50% carbohydrate, 30% protein and 20% fat. Food record data, body composition, EER, and blood sample analysis results were assessed on admission and every week for 16-weeks. Energy expenditure rate (EER) was measured by indirect calorimetry. Plasma levels of inflammatory markers alanine aminotransferase (ALT), aspartate aminotransferase (AST), g-glutamyltransferase (GGT) enzymes and C-reactive protein (CRP) were evaluated as measures of liver function, along with diastolic and systolic blood pressure, dual-energy X-ray absorptiometry to determine percent of lean and fat body mass, and liver fat content.
Subjects were randomly assigned to one of 10 treatments or placebo (total 11 groups), which were in softgel capsules and were to be consumed with water 15 to 30 mins. before meals. Each phytomedicine soft-gel capsule provided 100 mg of Undaria pinnatifida (Phaeophyceae) brown marine vegetable extract and 100 mg of cold-pressed pomegranate (Punica granatum, Punicaceae) seed oil.
All subjects completed 16 weeks clinical trial without any reported adverse effects. […]

[4] = fucoxanthin, cited from earlier work
[5] = fucoxanthin, wistar rats; cited from earlier work

Row | Substance | Effects on EER vs. placebo and baseline ([1]; 8.40 mg fucoxanthin) | Effects on EER vs. those of 4.20 mg fucoxanthin ([1]; 8.40 mg fucoxanthin) | minimum doses that resulted in statistically significant increases in EER ([1]; 16-week trial, fucoxanthin as mg fucoxanthin/day) [mg] | Effects on EER ([1]; Fucoxanthin 1.68 mg/day) | Effects on EER ([1]; Fucoxanthin 2.52 mg/day) | Effects on EER ([1]; Fucoxanthin 4.20 mg/day) | Effects on EER ([1]; Fucoxanthin 8.40 mg/day) | EER in obese subjects (overall) ([1]; oral supplementation, effect dose-dependent and time-dependent) | expression of uncoupling protein UCP1 gene in white adipose tissue (WAT) [2] | tolerability ([3]; 16 weeks, all subjects, no reported adverse effects) | body weight ([4]; KK-Ay mice) | WAT ([4]; obese KK-Ay mice) | WAT [5] | tolerability ([3]; human, in vivo)
1 | fucoxanthin | highly significant | significant | 2.52 | NE | * (* = significant vs. placebo and vs. baseline, p < 0.05% at the week listed for the duration of the study) | * (* = significant vs. placebo and vs. baseline, p < 0.05% at the week listed for the duration of the study) | *** (*** = significant vs. placebo and vs. baseline, p < 0.001%) | increased; also recorded: statistically significant dose-dependent increase | upregulates | well tolerated | significant reduction | reduced WAT | reduced WAT | –
2 | Pomegranate Seed Oil | – | – | – | – | – | – | – | – | – | – | – | – | – | well tolerated
